In a melting point compilation (Tetko et al.; mined from patent text by program, amines drawn as free bases though some values may be those of a salt) one finds melting point data, which are given here for 34 compounds.

Each structure is given as a SMILES string.

The melting point is the temperature, or range, at which the solid turns liquid. As for `COc1ccc([C@H]2SC(c3ccccc3)=C(C)N(CCN(C)C)C(=O)[C@H]2OC(C)=O)cc1`, the melting point was 90 to 92 °C. The compound `Nc1ccc(N2C(=O)CCCC2=O)cc1` had a melting point of 214 to 215 °C. The result for `CCCCN(CCCC)c1ccc(C=Cc2ccc(C=CC3=C(C#N)C(=C(C#N)C#N)OC3(C)C(F)(F)F)s2)c(OCc2ccccc2)c1` (centres undefined) reads 184 to 185 °C. Turning to `C[C@@H](c1ccccc1)N1CC[C@@H](C2(N(Cc3ccccc3)Cc3ccccc3)CC2)C1`, the melting point was in the range of 61 to 61.3 °C. Consider `OCC1OC(n2c(Cl)nc3cc(Cl)c(Cl)cc32)C(F)C1O` (centres undefined), for which the melting point is 223 °C. `CCOC(=O)c1cnn2c(O)cc(-c3ccc(Cl)cc3)nc12` displayed a melting point of 190 to 192 °C. Under `Cc1cccc(NC(=O)c2ccccc2CN2C(=O)C3(COc4cc5c(cc43)CCO5)c3ccccc32)c1` (centres undefined) stands 229 to 231 °C. Under `CCOC(=O)c1cnn(-c2ccc(OC)cc2)c1Cl` stands 100 to 101 °C; under `Nc1nc(-c2cccnc2)c(Cl)s1`, 202 °C; under `C=CCOc1ccc(C=CC(=O)N2CCN(c3nc(N)c4cc(OC)c(OC)cc4n3)CC2)cc1`, 218 to 220 °C.

`Cc1c(C)c2c(c(C)c1N)CC(C)(CN1CCN(c3ccccc3)CC1)O2` (centres undefined) came in with a melting point of 94 to 95 °C. The result for `CON=CC(C)(C)C(O)(COc1cccc2ccccc12)Cn1ccnc1` (centres undefined) reads 177 to 178 °C. `CC(C)(C)OC(=O)NCCOc1noc2ccc(F)c(C#N)c12` returned a melting point of 116 to 117 °C. Under `COc1ccc(-c2cccc(C(=O)NCCO)c2)c2cc(Cc3cccc(C(F)(F)F)c3)oc12` stands 111 to 112 °C; under `CCC(=O)c1cccc(C(N)=O)c1`, 121 to 122 °C. The result for `O=S1(=O)N=C(c2ccc(Cl)cc2)N(c2cc(Cl)cc(Cl)c2)c2ccncc21` reads 284 to 286 °C.

For the compound `CCCCn1nc(CCc2ccccc2)nc1Cc1ccc(-c2ccccc2-c2nnn[nH]2)nc1`, the melting point is 121 to 123 °C. The result for `COc1ccc2nc3ccc(C(=O)N(C)C)cn3c(=O)c2c1` reads 190 to 196 °C. Regarding `COC(=O)c1c(Br)c(F)cc2[nH]ncc12`, the melting point was in the range of 169 to 171 °C. The result for `CCCCCC(=O)n1c(=O)n(-c2ccc(OC)cc2)c(=O)n1C(=O)CCCCC` reads 88 to 90 °C. Compound `O=C(NCC12CC3CC(CC(C3)C1)C2)c1cc(-c2cccnc2N2CCC(C(=O)O)CC2)ccc1Cl` gave a melting point of 110 to 115 °C. The result for `Cc1cc(Cl)ccc1NC(=O)NC(=O)C(Cl)CCl` (centres undefined) reads 111 to 113 °C; that for `Cc1cnc(C(=O)c2[nH]c3cc(Cl)ccc3c2CC(=O)O)cc1C`, 226 to 228 °C; that for `CN(CC(O)c1cccc(O)c1)C(=O)c1cnc(N(C)C)nc1-c1ccccc1` (centres undefined), 79 to 81 °C. The result for `O=C(Nc1cccc(Cc2nnn[nH]2)c1)C(F)(F)C(F)(F)C(F)(F)C(F)(F)C(F)(F)C(F)(F)C(F)(F)F` reads 163 to 166 °C. `Fc1ccccc1N1CCN(Cc2cn3cc(Cl)ccc3n2)CC1` returned a melting point of 107 to 108 °C. As for `CCCCCCCCCCCCCCCCOC(=O)OC(C)=CC(C)=O`, the melting point fell in the range of 33 to 35 °C. The compound `O=C(c1ccc(-n2cccn2)cc1)N1Cc2cccn2Cc2ccccc21` registered a melting point of 179 to 181 °C. On to `Cc1ccc2c(=O)n3nc(C)cc3[nH]c2n1`, for which the melting point was greater than 300 °C. As for `Cn1c(COc2ccc(CC3SC(=O)NC3=O)cc2)nc2ccc(Oc3ccc(NC(=O)c4cc(C(C)(C)C)c(O)c(C(C)(C)C)c4)cc3)cc21` (centres undefined), the melting point fell in the range of 160 to 162 °C.

For the compound `CNC(=O)c1c(N)cccc1OC`, the melting point fell in the range of 186 to 189 °C. The result for `COc1cc(-c2cccs2)ccc1C(=O)/C=C/c1ccc(C(=O)O)cc1` reads 193 to 195 °C; that for `Cc1ncn(-c2cc(F)ccc2C#N)n1`, 117 to 118 °C.

On to `NC(=NCC(F)(F)F)Nc1ccnc(SCCCNC(=O)c2ccco2)n1`, for which the melting point was 127 to 129 °C.
